# Reference: ChEMBL document CHEMBL5715954, “Silencing c-Myc translation as a therapeutic strategy through targeting PI3Kδ and CK1ε in hematological malignancies” (Blood, 2017)
# Active and inactive are the calls of the source. No cut-off for these calls is given here.
# Assays:
# PF-382 = assay: Induction of apoptosis in human PF-382 cells assessed as increase in cleaved-PARP expression at 5 uM measured after 24 hrs in presence of bortezomib by Western blot analysis; assay type: functional, cell-based
# mTORC1 (Homo sapiens) [1] = target: T1, mTORC1 (Homo sapiens) (UniProt P42345+Q8N122+Q9BVC4); assay: Inhibition of mTORC1 in human LY7 cells assessed as reduction in c-Myc mRNA expression at 3 uM measured after 24 hrs in presence of bortezomib; assay type: cell-based
# SLL = assay: Induction of apoptosis in human SLL cells assessed as increase in cleaved-PARP expression at 5 uM measured after 24 hrs in presence of bortezomib by Western blot analysis; assay type: functional, cell-based
# mTORC1 (Homo sapiens) [2] = target: T1, mTORC1 (Homo sapiens); assay: Inhibition of mTORC1 in human SLL cells assessed as reduction in c-Myc expression at 5 uM measured after 24 hrs in presence of bortezomib by Western blot analysis; assay type: cell-based
# CLL cell = assay: Induction of apoptosis in human CLL cells assessed as increase in cleaved-PARP expression at 5 uM measured after 24 hrs in presence of bortezomib by Western blot analysis; assay type: functional, cell-based
# [3] = target: Myc proto-oncogene protein (Homo sapiens) (UniProt P01106); assay: Inhibition of c-Myc in human LY10 cells assessed as reduction in E2F1 expression at 3 uM incubated for 24 hrs in presence of bortezomib by Western blot analysis; assay type: cell-based
# mTORC1 (Homo sapiens) [4] = target: T1, mTORC1 (Homo sapiens); assay: Inhibition of mTORC1 in human PF-382 cells assessed as reduction in c-Myc expression at 5 uM measured after 24 hrs in presence of bortezomib by Western blot analysis; assay type: cell-based
# mTORC1 (Homo sapiens) [5] = target: T1, mTORC1 (Homo sapiens); assay: Inhibition of mTORC1 in human LY7 cells assessed as reduction in 4E-BP1 phosphorylation at 3 uM measured after 24 hrs in presence of bortezomib by Western blot analysis; assay type: cell-based
# [6] = Cytotoxicity against human PBMC assessed as reduction in cell viability at 2.5 to 5 uM measured after 24 to 72 hrs in presence of carfilzomib by cell-titer glo assay; assay type: toxicity, cell-based; conditions: dose lower 2.5 µM, time lower 24 hrs, dose upper 5 µM, time upper 72 hrs
# OCILY7 [7] = assay: Inhibition of PI3Kdelta/CK1epsilon in human OCILY7 cells transfected with an empty vector assessed as reduction in c-Myc expression at 7.5 to 25 uM measured after 24 hrs by Western blot analysis; assay type: cell-based; conditions: dose 7.5-25 µM
# [8] = target: T2, Phosphatidylinositol 4,5-bisphosphate 3-kinase catalytic subunit delta isoform (Homo sapiens) (UniProt O00329); assay: Inhibition of PI3Kdelta in human DB cells assessed as reduction in AKT phosphorylation at S473 residue measured after 4 hrs; assay type: cell-based; conditions: dose 10-10000 nM
# T2 sequence (whole entry): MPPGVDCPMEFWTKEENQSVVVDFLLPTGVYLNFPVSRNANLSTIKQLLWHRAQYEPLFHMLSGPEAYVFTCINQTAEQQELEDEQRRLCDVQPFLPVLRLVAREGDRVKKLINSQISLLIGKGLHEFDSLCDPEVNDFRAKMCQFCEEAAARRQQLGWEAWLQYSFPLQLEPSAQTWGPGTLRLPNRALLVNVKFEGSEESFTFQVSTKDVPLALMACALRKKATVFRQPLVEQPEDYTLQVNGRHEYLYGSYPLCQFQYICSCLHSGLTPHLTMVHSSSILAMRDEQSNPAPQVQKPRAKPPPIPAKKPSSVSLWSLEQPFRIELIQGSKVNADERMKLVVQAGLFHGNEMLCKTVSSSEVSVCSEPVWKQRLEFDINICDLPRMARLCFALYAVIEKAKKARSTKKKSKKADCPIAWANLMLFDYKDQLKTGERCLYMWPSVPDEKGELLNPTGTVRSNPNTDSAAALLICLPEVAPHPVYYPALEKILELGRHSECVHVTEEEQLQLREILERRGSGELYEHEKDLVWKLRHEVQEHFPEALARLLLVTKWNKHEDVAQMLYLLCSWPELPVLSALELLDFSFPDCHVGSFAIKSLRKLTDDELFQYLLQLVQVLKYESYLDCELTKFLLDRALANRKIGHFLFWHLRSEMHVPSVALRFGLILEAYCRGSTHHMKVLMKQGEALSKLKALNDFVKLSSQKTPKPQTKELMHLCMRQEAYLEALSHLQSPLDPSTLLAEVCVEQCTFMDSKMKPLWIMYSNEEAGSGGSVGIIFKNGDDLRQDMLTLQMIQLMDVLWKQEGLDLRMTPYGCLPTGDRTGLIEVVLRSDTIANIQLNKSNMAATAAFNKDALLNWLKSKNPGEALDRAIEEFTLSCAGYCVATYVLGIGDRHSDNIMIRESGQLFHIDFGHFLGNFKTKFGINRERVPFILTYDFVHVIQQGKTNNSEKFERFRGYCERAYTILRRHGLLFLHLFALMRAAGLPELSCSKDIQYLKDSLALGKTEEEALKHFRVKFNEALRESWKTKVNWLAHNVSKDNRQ
# LY7 [9] = assay: Inhibition of PI3Kdelta/CK1epsilon in human LY7 cells assessed as reduction in c-Myc expression at 15 to 50 uM measured after 24 hrs by Western blot analysis; assay type: cell-based; conditions: dose 15-50 µM
# mTORC1 (Homo sapiens) [10] = target: T1, mTORC1 (Homo sapiens); assay: Inhibition of mTORC1 in human NCI-H929 cells transduced with an eIF4E-overexpressing plasmid assessed as reduction in eIF4E expression at 5 uM incubated for 24 hrs in presence of carfilzomib by Western blot analysis; assay type: cell-based
# MOLT-4 = assay: Antitumor activity against human MOLT-4 cells xenografted in NOD/SCID mouse assessed as reduction in tumor volume at 150 mg/kg, po administered daily for 25 days measured at 2 to 3 times per week during compound dosing by caliper method; assay type: functional, organism-based; conditions: time 25.0 day
# OCI-Ly7 = assay: Cytotoxicity against human OCILY7 cells transfected with c-Myc-expressing plasmid (M+) assessed as reduction in cell viability at 3 to 5 uM incubated for 24 hrs in presence of carfilzomib by cell-titer glo assay; assay type: functional, cell-based; conditions: dose 3-5 µM
# mTORC1 (Homo sapiens) [11] = target: T1, mTORC1 (Homo sapiens); assay: Inhibition of mTORC1 in human SLL cells assessed as reduction in 4E-BP1 phosphorylation at 5 uM measured after 24 hrs in presence of carfilzomib by Western blot analysis; assay type: cell-based
# LY7 [12] = assay: Inhibition of PI3Kdelta/CK1epsilon in human LY7 cells assessed as reduction in 4E-BP1 phosphorylation at 25 uM incubated for 24 hrs by Western blot analysis; assay type: cell-based
# mTORC1 (Homo sapiens) [13] = target: T1, mTORC1 (Homo sapiens); assay: Inhibition of mTORC1 in human CLL cells assessed as reduction in c-Myc expression at 5 uM measured after 24 hrs in presence of carfilzomib by Western blot analysis; assay type: cell-based; conditions: CLL cell
# OCILY7 [14] = assay: Inhibition of PI3Kdelta/CK1epsilon in human OCILY7 cells transfected with c-Myc-expressing plasmid (M+) assessed as reduction in c-Myc expression at 7.5 to 25 uM measured after 24 hrs by Western blot analysis; assay type: cell-based; conditions: dose 7.5-25 µM
# mTORC1 (Homo sapiens) [15] = target: T1, mTORC1 (Homo sapiens); assay: Inhibition of mTORC1 in human OCILY7 cells transfected with c-Myc-expressing plasmid (M+) assessed as reduction in endogenous c-Myc expression at 3 to 5 uM incubated for 24 hrs in presence of carfilzomib by Western blot analysis; assay type: cell-based; conditions: dose 3-5 µM
# T1 sequence (Q8N122 whole entry, looked up, other chains not shown): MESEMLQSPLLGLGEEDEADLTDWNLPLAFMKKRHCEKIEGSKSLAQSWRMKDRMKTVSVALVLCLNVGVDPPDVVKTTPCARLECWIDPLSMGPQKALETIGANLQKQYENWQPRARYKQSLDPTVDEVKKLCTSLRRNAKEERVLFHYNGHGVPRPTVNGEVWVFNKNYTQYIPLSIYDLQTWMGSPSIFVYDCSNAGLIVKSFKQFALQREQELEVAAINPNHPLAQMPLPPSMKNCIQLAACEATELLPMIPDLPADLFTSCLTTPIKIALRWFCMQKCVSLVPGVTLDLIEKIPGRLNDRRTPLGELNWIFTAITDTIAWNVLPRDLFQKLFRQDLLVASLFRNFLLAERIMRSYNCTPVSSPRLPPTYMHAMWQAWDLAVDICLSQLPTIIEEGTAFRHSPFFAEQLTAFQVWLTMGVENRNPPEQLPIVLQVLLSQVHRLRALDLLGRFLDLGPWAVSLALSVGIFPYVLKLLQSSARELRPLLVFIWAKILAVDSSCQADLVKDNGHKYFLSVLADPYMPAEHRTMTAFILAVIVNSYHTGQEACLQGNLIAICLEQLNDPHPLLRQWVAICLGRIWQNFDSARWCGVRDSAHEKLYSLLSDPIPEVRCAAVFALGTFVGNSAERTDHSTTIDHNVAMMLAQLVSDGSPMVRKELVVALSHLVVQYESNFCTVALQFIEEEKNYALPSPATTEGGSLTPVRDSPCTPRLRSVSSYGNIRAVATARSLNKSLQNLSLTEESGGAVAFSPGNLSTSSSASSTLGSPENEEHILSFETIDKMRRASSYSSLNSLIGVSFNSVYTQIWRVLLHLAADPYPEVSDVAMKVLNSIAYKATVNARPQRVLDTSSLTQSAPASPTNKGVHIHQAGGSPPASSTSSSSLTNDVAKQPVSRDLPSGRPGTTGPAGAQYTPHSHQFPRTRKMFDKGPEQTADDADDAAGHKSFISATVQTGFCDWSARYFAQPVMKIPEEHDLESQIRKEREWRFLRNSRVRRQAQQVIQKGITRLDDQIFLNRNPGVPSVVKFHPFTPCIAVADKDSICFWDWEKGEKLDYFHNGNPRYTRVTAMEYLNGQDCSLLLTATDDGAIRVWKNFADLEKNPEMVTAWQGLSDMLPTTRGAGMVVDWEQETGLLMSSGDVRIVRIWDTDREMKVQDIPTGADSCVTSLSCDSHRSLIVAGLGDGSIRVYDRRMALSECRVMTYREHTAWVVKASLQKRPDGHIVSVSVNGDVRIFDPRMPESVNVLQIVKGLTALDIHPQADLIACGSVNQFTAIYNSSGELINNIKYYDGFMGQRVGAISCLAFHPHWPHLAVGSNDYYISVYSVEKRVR
# T1 sequence (Q9BVC4 whole entry, looked up, other chains not shown): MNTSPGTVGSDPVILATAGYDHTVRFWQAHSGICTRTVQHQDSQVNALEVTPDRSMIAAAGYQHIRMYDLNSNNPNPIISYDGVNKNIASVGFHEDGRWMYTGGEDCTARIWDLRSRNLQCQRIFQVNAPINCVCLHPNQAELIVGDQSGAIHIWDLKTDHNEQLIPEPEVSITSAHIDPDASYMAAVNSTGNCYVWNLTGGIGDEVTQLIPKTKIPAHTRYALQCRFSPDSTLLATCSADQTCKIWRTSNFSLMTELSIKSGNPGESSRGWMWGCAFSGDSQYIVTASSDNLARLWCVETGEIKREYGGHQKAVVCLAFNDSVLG
# Chain of Myc proto-oncogene protein (Homo sapiens) (P01106 whole entry): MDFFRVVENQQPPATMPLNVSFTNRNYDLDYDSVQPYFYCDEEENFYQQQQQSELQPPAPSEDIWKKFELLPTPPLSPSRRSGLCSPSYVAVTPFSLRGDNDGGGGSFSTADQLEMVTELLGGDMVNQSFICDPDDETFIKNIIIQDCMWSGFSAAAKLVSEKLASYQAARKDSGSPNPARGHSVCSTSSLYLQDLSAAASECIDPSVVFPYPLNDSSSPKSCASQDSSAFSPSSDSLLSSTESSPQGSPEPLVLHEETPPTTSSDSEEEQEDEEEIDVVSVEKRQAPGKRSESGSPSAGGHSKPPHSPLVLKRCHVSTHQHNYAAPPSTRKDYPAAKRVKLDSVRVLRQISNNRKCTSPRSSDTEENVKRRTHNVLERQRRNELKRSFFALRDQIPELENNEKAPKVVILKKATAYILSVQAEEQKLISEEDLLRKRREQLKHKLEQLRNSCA
SMILES,Activity (PF-382),inhibition (mTORC1 (Homo sapiens) [1]),Activity (SLL),inhibition (mTORC1 (Homo sapiens) [2]),Activity (CLL cell),inhibition [3],inhibition (mTORC1 (Homo sapiens) [4]),inhibition (mTORC1 (Homo sapiens) [5]),Activity [6],inhibition (OCILY7 [7]),inhibition [8],inhibition (LY7 [9]),inhibition (mTORC1 (Homo sapiens) [10]),Activity (MOLT-4),Activity (OCI-Ly7),inhibition (mTORC1 (Homo sapiens) [11]),inhibition (LY7 [12]),inhibition (mTORC1 (Homo sapiens) [13]),inhibition (OCILY7 [14]),inhibition (mTORC1 (Homo sapiens) [15])
CC[C@H](Nc1ncnc2[nH]cnc12)c1nc2cccc(F)c2c(=O)n1-c1ccccc1,Active,inactive,Active,inactive,Active,inactive,inactive,inactive,,,,,,,,,,,,
CC(C)Oc1ccc(-c2nn([C@@H](C)c3oc4ccc(F)cc4c(=O)c3-c3cccc(F)c3)c3ncnc(N)c23)cc1F [UMBRALISIB],,,,,,,,,Non-Toxic,Active,Dose-Dependent Effect,Active,inactive,Active,inactive,Active,Active,Active,inactive,inactive
